This note sets out measurements from patent USRE42890E1, “Furazanobenzimidazoles” (Basilea Pharmaceutica AG, priority 2003, dated 2011).

Assay [1] concerns adherent cells or suspension cells. Nature of the assay: Hoechst 33342 nuclear staining (fraction of apoptotic nuclei). Set-up: key: 0 relating to no activity; 1 relating to weak activity comprising less than 70% of the cells; score 2 relating to strong activity comprising more than 70% of the cells. Type of assay: cell-based.
A further assay concerns Jurkat. Nature of the assay: MTS proliferation assay, Jurkat. It counts as cell-based, human. The note with it: 72 h incubation, read-out: MTS proliferation assay IC 50 Jurkat. The gist of the method:
(§1)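 Proliferation: RPMI-1640/FCS complete medium, 37 °C, 7.5% CO2, cells plated 24 h pre-dose; compounds at 10, 3, 1, 0.3 μM final for 72 h; MTS, 492 nm.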
On the technique in general: Formazan colour is commonly taken as a measure of viable cells.

For another assay, the system named is HeLa. Nature of the assay: MTS proliferation assay, HeLa. Type of assay: cell-based, human. Conditions: 72 h incubation, read-out: MTS proliferation assay IC 50 HeLa. The gist of the method:
as §1

The next assay deals with HT1080. Put plainly: MTS proliferation assay, HT1080. Conditions: HT1080, 72 h incubation; read-out: MTS proliferation assay IC 50 HT1080. It counts as cell-based, human. As to the method:
Cell lines are cultured in RPMI-1640 tissue culture medium containing either 5% or 10% fetal calf serum, 0.05 mM 2-mercaptoethanol, 2 mM glutamine and penicillin/streptomycin 50 μg/ml (complete medium) (Sigma, Buchs, Switzerland). General growth conditions are 37° C. and 7.5% CO2.
The following human cell lines (either EGFP transfected or not) are being used: HeLa (ATCC: CCL-2), KB (ATCC: CCL-17), MCF7 (ATCC: HTB-22), SK-BR-3 (ATCC: HTB-30), SK-Mel 1 (ATCC: HTB-67), SK-Mel 28 (ATCC: HTB-72), PC-3 (ATCC: CRL-1435), SW 480 (ATCC: CCL-228), NCl-H460 (ATCC: HTB-177), NCl-H1792 (ATCC: CRL-5895), HT1080 (ATCC: CCL-21), Jurkat (ATCC: TIB-152), Ramos (ATCC: CRL-1596), Raji (ATCC: CCL-86), H9 (ATCC: HTB-176), Hut78 (ATCC: TIB-161), K562 (ATCC: CCL 243), HL-60 (ATCC: CCL 240), U-87MG (ATCC: HTB-14), HepG2 (ATCC: HB-8065), U-2 OS (ATCC: HTB-96), Saos-2 (ATCC: HTB-85), U937 (ATCC: CRL 1593), Hs 578T (ATCC: HTB 126), HBL-100 (ATCC: HTB 124), Molt-4 (ATCC: CRL 1582).
The assay is performed in 96 well tissue culture plates. The cells (range: 1.5*10^3-10^4) are seeded out in 80 μl complete medium 24 h prior to compound treatment. The test compounds are added in 20 μl complete medium containing max 5% DMSO. The final compound concentrations in the assays are 10 μM, 3 μM, 1 μM and 0.3 μM, respectively. The assay plates are incubated for 72 h at culture conditions. The MTS reagent is prepared according to the manufacturer's protocol (Promega G1111). 20 μl MTS reagent are added to each well, the assay plates are quickly spun and incubated for another 3 h at culture conditions. Subsequently, the plates are shortly shaked and absorption measured with a microplate-reader at 492 nm.

The test system of another assay is MRC5. Nature of the assay: MTS proliferation assay, MRC5. Type of assay: cell-based. Conditions: MRC5, 72 h incubation; read-out: MTS proliferation assay IC 50 MRC5. The gist of the method:
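Viability after 72 h compound exposure at 10, 3, 1 and 0.3 μM final was scored by MTS absorbance (492 nm, 3 h reagent incubation), with cells kept in RPMI-1640 containing 5% or 10% fetal calf serum.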

Turning to `COc1cc2nc(-c3nonc3N)n(CC(=O)c3ccc(Cl)cc3)c2cc1OC` [Example 114], the “Hoechst 33342 nuclear staining score” value turned out to be 0 in assay [1] (H460, conc 0.01 μm); 0 in assay [1] (H460, conc 0.1 μm); 0 in assay [1] (H460, conc 1 μm); 0 in assay [1] (HeLa, conc 0.01 μm); 0 in assay [1] (HeLa, conc 0.1 μm); 0 in assay [1] (HeLa, conc 1 μm). Also, the “Hoechst 33342 nuclear staining score” value was found to be 0 in assay [1] (Jily, conc 0.01 μm); 0 in assay [1] (Jily, conc 0.1 μm); 0 in assay [1] (Jily, conc 1 μm); 0 in assay [1] (Jurkat, conc 0.01 μm); 0 in assay [1] (Jurkat, conc 0.1 μm); 0 in assay [1] (Jurkat, conc 1 μm). Further, the “Hoechst 33342 nuclear staining score” value is given as 0 in assay [1] (MRC5, conc 0.01 μm); 0 in assay [1] (MRC5, conc 0.1 μm); 0 in assay [1] (MRC5, conc 1 μm); 0 in assay [1] (PBLs, conc 0.01 μm); 0 in assay [1] (PBLs, conc 0.1 μm); 0 in assay [1] (PBLs, conc 1 μm). Besides, the IC50 with Jurkat, in the assay on HeLa, with HT1080 and in the assay with MRC5 was over 1 µM throughout.

`COc1cc2nc(-c3nonc3N)n(CC(=O)c3ccc(-c4ccccc4)cc3)c2cc1OC` [Example 117]: the “Hoechst 33342 nuclear staining score” value in assay [1] (H460, conc 0.01 μm) was found to be 0; in assay [1] (H460, conc 0.1 μm), 0; in assay [1] (H460, conc 1 μm), 0; in assay [1] (HeLa, conc 0.01 μm), 0; in assay [1] (HeLa, conc 0.1 μm), 0; in assay [1] (HeLa, conc 1 μm) it was 0. Also, the “Hoechst 33342 nuclear staining score” value in assay [1] (Jily, conc 0.01 μm) is on record as 0; in assay [1] (Jily, conc 0.1 μm), 0; in assay [1] (Jily, conc 1 μm) it was 0; in assay [1] (Jurkat, conc 0.01 μm), 0; in assay [1] (Jurkat, conc 0.1 μm), 0; in assay [1] (Jurkat, conc 1 μm), 0. In addition, the “Hoechst 33342 nuclear staining score” value in assay [1] (MRC5, conc 0.01 μm) was 0; in assay [1] (MRC5, conc 0.1 μm), 0; in assay [1] (MRC5, conc 1 μm) it was 0; in assay [1] (PBLs, conc 0.01 μm), 0; in assay [1] (PBLs, conc 0.1 μm), 0; in assay [1] (PBLs, conc 1 μm), 0. In addition, the IC50 in the assay on Jurkat, with HeLa, with HT1080 and in the assay with MRC5 was over 1 µM in each case.

As to `N#Cc1ccc(C(=O)Cn2c(-c3nonc3N)nc3ccccc32)cc1` [Example 63], the “Hoechst 33342 nuclear staining score” value in assay [1] (H460, conc 0.01 μm) came out at 0; in assay [1] (H460, conc 0.1 μm), 0; in assay [1] (H460, conc 1 μm), 0; in assay [1] (HeLa, conc 0.01 μm), 0; in assay [1] (HeLa, conc 0.1 μm), 0; in assay [1] (HeLa, conc 1 μm), 0. Besides, the “Hoechst 33342 nuclear staining score” value in assay [1] (Jily, conc 0.01 μm) came to 0; in assay [1] (Jily, conc 0.1 μm), 0; in assay [1] (Jily, conc 1 μm), 0; in assay [1] (Jurkat, conc 0.01 μm) it was 0; in assay [1] (Jurkat, conc 0.1 μm), 0; in assay [1] (Jurkat, conc 1 μm), 0. For the same molecule, the “Hoechst 33342 nuclear staining score” value in assay [1] (MRC5, conc 0.01 μm) worked out at 0; in assay [1] (MRC5, conc 0.1 μm), 0; in assay [1] (MRC5, conc 1 μm), 0; in assay [1] (PBLs, conc 0.01 μm) it was 0; in assay [1] (PBLs, conc 0.1 μm), 0; in assay [1] (PBLs, conc 1 μm), 0. The IC50 in the assay with Jurkat, in the assay on HeLa, with HT1080 and in the assay with MRC5 was over 1 µM throughout.
